US20210134398A1, “Combinatorial Chemistry Computational System and Enhanced Selection Method” (Southern Methodist University, priority 2019, published 2021)
Read-outs that look alike come from different tables or passages of the source.

What was measured:
[1] = target: T1, cysteineless mouse P-glycoprotein (Mus musculus, UniProt P21447, C1070A/C1121A/C1223A/C133A/C427A/C638A/C669A/C713A/C952A); experiment: SL-ATP (spin-labeled ATP analog) binding titration by ESR; conditions: for Maximum ATP binding: in the presence of the compound, ± standard deviation
T1 construct: made in house; host or cells: Pichia pastoris
Method: Effects of 29 variants on binding of an ATP-analog to purified P-glycoprotein. ATP binding in the presence of the 29 variants was assessed in titration assays using a spin-labeled analog of ATP, 2′,3′-SL-ATP (2′,3′-(2,2,5,5,-tetramethyl-3-pyrroline-1-oxyl-3-carboxylic acid ester) ATP; (2′,3′ indicates a rapid equilibrium of the ester bond between the C2′ and C3′ of the ribose moiety))^48-50, and electron spin resonance spectroscopy as described in^26. Due to the lower stability of the human P-glycoprotein in the extended times needed for these experiments, the cysteineless mouse protein was used here. The goal was to assess whether binding of the 29 variants to P-gp affected nucleotide binding to the protein.
ESR Measurements. ESR measurements were as described in^26. The amount of protein-bound spin-labeled (SL) adenine nucleotide was determined as the difference between the known total concentration of SL-ATP (2′,3′-(2,2,5,5,-tetramethyl-3-pyrroline-1-oxyl-3-carboxylic acid ester) —ATP^48) added and the free spin-labeled nucleotide (SL-ANP) observed in the experiment. Hyperbolic curve fitting of the results was performed using GraphPad Prism 7 to determine maximum binding and apparent affinity for the spin-labeled nucleotide. The equation used for the fitting the curves was […], where P1 corresponds to the maximum binding of SL-ANP (moles of SL-ANP bound per mole P-gp), and P2 equals the apparent dissociation constant for SL-ANP. To quantify the amount of free SL-ANP, standard curves were established where the signal amplitude of the high field signal of the ESR spectra of free SL-ANP in the absence of protein was correlated to the concentration of SL-ANP added. All ESR measurements were performed using a Bruker EMX 6/1 ESR spectrophotometer operating in X-band mode and equipped with a high sensitivity cavity. Spectra were acquired at a microwave frequency of 9.33 GHz, microwave power of 12.63 mW, 100 kHz modulation frequency and a resolution of 1024 points. The centerfield of the scan was at 3325 G and an area of 100 G was scanned. The peak to peak modulation amplitude was 1G and the time constant was set to 10.240 ms. The conversion time was 163.84 ms, resulting in a total time sweep of 167.772 s. The signal gain was adjusted for the SL-ATP concentrations in the different experiments.

[2] = system: DU145TXR; experiment: Cell viability, toxicity of the compounds themselves; assay type: cell-based; conditions: absence of chemotherapeutic or very low paclitaxel
Method: It should be noted that compounds 541 and 551 were not assessed in these latter experiments.
MTT cell viability assay. Cells were trypsinized from monolayers and seeded with 3000 cells in 150 μL of complete medium in a 96 well plate. After 24 hours, cells were treated for 48 hours with paclitaxel (Acros Organics, NJ) and/or P-gp inhibitory compounds dissolved in DMSO, or DMSO controls. All additions were diluted into complete medium. After 48 hours of treatment, MTT assays were performed as described^41 using 5 mg/mL of MTT (Acros Organics, NJ) solution prepared in PBS (137 mM NaCl, 2.7 mM KCl, 10 mM Na2HPO4, 1.8 mM KH2PO4, pH 7.4). After 4 hours of incubation with MTT, the media was removed and the formazan crystals were dissolved in 100 μL of DMSO. The absorbance at 570 nm was then measured using a BioTek Cytation 5 imaging multi-mode reader (Bio-Tek, Winooski, Vt.). Percent viability was calculated using DMSO treated cells as representative for 100% viability, according to Equation 1. Background absorbance was determined using MTT and complete medium without cells and subtracted from all the test values. Equation 1: […]

[3] = target: T1, cysteineless mouse P-glycoprotein; conditions: in the presence of 29, from Brewer et al. (2014), cited from earlier work

T1 sequence (P21447 whole entry C133A/C427A/C638A/C669A/C713A/C952A/C1070A/C1121A/C1223A): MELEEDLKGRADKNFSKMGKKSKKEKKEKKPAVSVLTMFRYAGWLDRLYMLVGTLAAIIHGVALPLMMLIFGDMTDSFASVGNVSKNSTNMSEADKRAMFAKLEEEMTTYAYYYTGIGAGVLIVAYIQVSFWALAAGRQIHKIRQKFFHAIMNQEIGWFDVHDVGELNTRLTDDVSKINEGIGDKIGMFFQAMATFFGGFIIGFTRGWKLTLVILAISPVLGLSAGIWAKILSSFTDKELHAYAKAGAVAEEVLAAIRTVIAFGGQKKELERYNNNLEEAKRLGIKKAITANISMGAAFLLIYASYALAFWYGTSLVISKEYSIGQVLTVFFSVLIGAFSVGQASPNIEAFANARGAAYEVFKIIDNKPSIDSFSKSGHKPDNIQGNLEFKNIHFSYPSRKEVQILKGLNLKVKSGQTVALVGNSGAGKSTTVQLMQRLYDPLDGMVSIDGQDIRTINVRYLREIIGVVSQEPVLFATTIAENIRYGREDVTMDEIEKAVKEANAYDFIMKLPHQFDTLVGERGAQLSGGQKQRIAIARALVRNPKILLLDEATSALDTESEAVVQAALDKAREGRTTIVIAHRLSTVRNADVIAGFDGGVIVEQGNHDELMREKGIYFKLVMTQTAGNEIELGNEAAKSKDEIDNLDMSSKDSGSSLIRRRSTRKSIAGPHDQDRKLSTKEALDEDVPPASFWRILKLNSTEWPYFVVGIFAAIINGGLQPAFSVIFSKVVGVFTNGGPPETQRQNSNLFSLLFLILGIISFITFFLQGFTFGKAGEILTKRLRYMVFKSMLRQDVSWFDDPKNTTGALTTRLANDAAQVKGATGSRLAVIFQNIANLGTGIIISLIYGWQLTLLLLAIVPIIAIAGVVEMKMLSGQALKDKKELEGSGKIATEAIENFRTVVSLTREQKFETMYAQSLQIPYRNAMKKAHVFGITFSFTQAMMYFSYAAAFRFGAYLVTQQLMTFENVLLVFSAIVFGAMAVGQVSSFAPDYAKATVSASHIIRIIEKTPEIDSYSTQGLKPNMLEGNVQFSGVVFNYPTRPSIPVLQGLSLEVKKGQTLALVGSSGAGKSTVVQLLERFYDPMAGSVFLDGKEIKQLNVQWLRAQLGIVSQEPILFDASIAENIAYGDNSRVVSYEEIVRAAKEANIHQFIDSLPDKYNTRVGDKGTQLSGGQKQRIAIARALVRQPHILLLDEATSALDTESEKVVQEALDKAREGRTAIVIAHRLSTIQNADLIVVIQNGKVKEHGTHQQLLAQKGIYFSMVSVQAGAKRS

| Molecule | Effect on SL-ANP binding [1] | Maximum ATP binding [1] | other results |
| --- | --- | --- | --- |
| COc1cc(NC(=O)CSCC(=O)Nc2cc(-c3cc(C)c(C)cc3C)nn2-c2ccccc2)cc(OC)c1OC [29-238, N-[1-phenyl-3-(2,4,5-trimethylphenyl)-1H-pyrazol-5-yl]-2-({[(3,4,5-trimethoxyphenyl)carbamoyl]methyl}sulfanyl)acetamide] | yes |  | Maximum ATP binding ([1]; listed as 238): about 1 mol SL-ANP bound/mol P-gp; Maximum ATP binding ([1]; listed as SMU29-238): 1.2 ± 0.1 mol SL-ANP bound/mol P-gp |
| Cc1cc(C)c(-c2cc(NC(=O)CSc3cccc(NC(=O)c4cncc(Br)c4)c3)n(-c3ccccc3)n2)cc1C [29-551, 5-bromo-N-(3-((2-oxo-2-((1-phenyl-3-(2,4,5-trimethylphenyl)-1H-pyrazol-5-yl)amino)ethyl)thio)phenyl)nicotinamide] | no | 1.7 ± 0.1 mol SL-ANP bound/mol P-gp |  |
| Cc1cc(C)c(-c2cc(NC(=O)CSCC(=O)Nc3ccc4ccccc4c3)n(-c3ccccc3)n2)cc1C [29-231, 2-({[(naphthalen-2-yl)carbamoyl]methyl}sulfanyl)-N-[1-phenyl-3-(2,4,5-trimethylphenyl)-1H-pyrazol-5-yl]acetamide] | marginally | 1.8 ± 0.1 mol SL-ANP bound/mol P-gp |  |
| Cc1cc(C)c(-c2cc(NC(=O)CSCC(=O)NCc3ccc(F)cc3)n(-c3ccccc3)n2)cc1C [29-286] | no | 1.9 ± 0.1 mol SL-ANP bound/mol P-gp |  |
| Cc1cc(C)c(-c2cc(NC(=O)CSCC(=O)Nc3ccc4ncsc4c3)n(-c3ccccc3)n2)cc1C [29-255, 2-({[(1,3-benzothiazol-6-yl)carbamoyl]methyl}sulfanyl)-N-[1-phenyl-3-(2,4,5 trimethylphenyl)-1H-pyrazol-5-yl]acetamide] | no | 1.9 ± 0.1 mol SL-ANP bound/mol P-gp |  |
| Cc1cc(C)c(-c2cc(NC(=O)CSc3nnc4c(n3)[nH]c3ccccc34)n(-c3ccccc3)n2)cc1C [29-541, 2-((5H-[1,2,4]triazino[5,6-b]indol-3-yl)thio)-N-(1-phenyl-3-(2,4,5-trimethylphenyl)-1H-pyrazol-5-yl)acetamide] | no | 1.8 ± 0.1 mol SL-ANP bound/mol P-gp | Toxicity of the compound to DU145TXR cells [2]: showed some toxicity |
| Cc1cc(C)c(-c2cc(NC(=O)CSCC(=O)NC34CC5CC(CC(C5)C3)C4)n(-c3ccccc3)n2)cc1C [29-278, 2-({[(adamantan-1-yl)carbamoyl]methyl}sulfanyl)-N-[1-phenyl-3-(2,4,5-trimethylphenyl)-1H-pyrazol-5-yl]acetamide] | yes |  | Maximum ATP binding ([1]; listed as 278): about 1 mol SL-ANP bound/mol P-gp; Maximum ATP binding ([1]; listed as SMU29-278): 1.3 ± 0.1 mol SL-ANP bound/mol P-gp |
| Cc1cc(C)c(-c2cc(NC(=O)CSc3nnc(C4CC4)[nH]3)n(-c3ccccc3)n2)cc1C [compound 29, reference compound] |  |  | Effect on SL-ANP binding [3]: did not affect the binding; Effect on SL-ANP binding ([3]; listed as SMU29): no |
| Cc1cc(C)c(-c2cc(NC(=O)CSCC(=O)NC(c3ccccc3)c3ccccc3)n(-c3ccccc3)n2)cc1C [29-280, N-(diphenylmethyl)-2-[({[1-phenyl-3-(2,4,5-trimethylphenyl)-1H-pyrazol-5-yl]carbamoyl)methyl}sulfanyl]acetamide] | marginally | 1.6 ± 0.1 mol SL-ANP bound/mol P-gp | Toxicity of the compound to DU145TXR cells [2]: seemed to exhibit some toxicity |
| 2-{[2-(9H-flouoren-2-yl)-2-oxoethyl]}-N-[1-phenyl-3-(2,4,5-trimethylphenyl0-1H-pyrazol-5-yl]acetamide [29-216] | no | 1.7 ± 0.1 mol SL-ANP bound/mol P-gp |  |
| Cc1cc(C)c(-c2cc(NC(=O)CSCC(=O)N3c4ccccc4CCc4ccccc43)n(-c3ccccc3)n2)cc1C [29-227, 2-[(2-{2-azatricyclo[9.4.0.0]pentadeca-1(11),3(8},4,6,12,14-hexaen-2-yl)-2-oxoethyl)sulfanyl]-N-[1-phenyl-3-(2,4,5-trimethylphenyl)-1H-pyrazol-5-yl]acetamide] | no | 1.8 ± 0.1 mol SL-ANP bound/mol P-gp |  |
